Test results reported in ChEMBL document CHEMBL1143157, “New fused benzazepine as selective D3 receptor antagonists. Synthesis and biological evaluation. Part 2: [g]-fused and hetero-fused systems” (Bioorg Med Chem Lett, 2008).

Experiments:
in vivo [1] = settings: rat, po
in vivo [2] = settings: rat, brain and blood, iv
in vivo [3] = settings: rat
in vivo [4] = settings: rat, whole blood
in vivo [5] = settings: rat; remark: listed apart in the source

| bioavailability (in vivo [1]) [%] | Kp at 1 h (in vivo [2]) | Vd (in vivo [3]) [L/kg] | clearance (in vivo [4]) [mL/min/kg] | half-life (in vivo [5]) [h] | SMILES |
| --- | --- | --- | --- | --- | --- |
| 8 | 4 | 3.31 | 43 | – | Cc1ccc2c(-c3nnc(SCCCN4CCc5ccc6nc(C(C)(F)F)oc6c5CC4)n3C)cccc2n1 |
| 63 | 0.8 | 1.6 | 35 | 0.6 | Cc1ncoc1-c1nnc(SCCCN2CCc3ccc4oc(C(F)(F)F)nc4c3CC2)n1C |
| 15 | 2.5 | – | 48 | 1.7 | Cc1ccc2c(-c3nnc(SCCCN4CCc5ccc6oc(C)nc6c5CC4)n3C)cccc2n1 |
| 73 | 0.1 | 0.61 | 5 | 1.9 | CCc1nc2c3c(ccc2o1)CCN(CCCSc1nnc(-c2ocnc2C)n1C)CC3 |
| 54 | 0.2 | 0.8 | 9 | 1.2 | Cc1ncoc1-c1nnc(SCCCN2CCc3ccc4oc(C(C)(F)F)nc4c3CC2)n1C |
